According to US11045833B2, “Task specific ionic liquid-impregnated polymeric surface coatings for antibacterial, antifouling, and metal scavenging activity” (Massachusetts Institute of Technology, priority 2017, dated 2021):

Legend:
Pseudomonas aeruginosa = experiment: Biofilm formation in flow cell with CVD polymer coating, inoculated medium flowed through; format: cell-based; conditions: IL encapsulated in CVD polymer film on flow cell; medium inoculated with P. aeruginosa
Excerpt: Chemical vapor deposition (CVD) was used to cross-link a polymer and bind it to a flow cell surface using in a custom built vacuum reactor (Sharon Vacuum) previously described (Martin, T. P. et al. Biomaterials 2007, 28, 909-915; and Ozaydin-Ince, G. et al. J. Vac. Sci. Technol., A 2009, 27, 1135-1143). During CVD depositions, tert-butyl peroxide (TBPO) and monomers N,N-dimethylacrylamide ([…], FIG. 2A) and di(ethylene glycol) divinyl ether (DEGDVE, FIG. 2B) were introduced into the CVD reactor through mass flow controllers (1479 MFC, MKS Instruments). The grafting agent was trichlorovinylsilane (FIG. 2C), which covalently grafted the polymer network onto the surface via silanization. DMMA, which was the repeating unit in the polymer chains, was introduced into the chamber at a rate of about 2.8 mL/min. The crosslinker DEGDVE, which linked different polymer chains, was introduced into the chamber at a rate of 0.3 mL/min. The initiator TBPO was introduced into the chamber at a rate of about 1.0 mL/min. The substrate temperature was about 30° C., and the chamber pressure was about 400 mTorr. The ionic liquid was N-hexylethylenediaminium bis([…])amide, [HHex][Tf2N] (FIG. 1).
A flow cell had the bottom side CVD coated by the polymer as described in Example 2. One cell had the polymer film impregnated by an IL ([HHex][Tf2N]). […]

[1] = Ionic liquid leaching from ionogel by ICP mass spectrometry; format: physicochemical; conditions: IL trapped in ionogel
[2] = Desorption of polymer and ionic liquid from coated glass slides in water; format: physicochemical; conditions: after a day in water

## N-hexylethylenediaminium bis(trifluoroethanesulfonyl)amide [[HHex][Tf2N]]
Pseudomonas aeruginosa
  biofilm growth: no biofilm growth
[1]
  ionic liquid leaching over time: lack of ionic liquid leaching over time
[2]
  desorption of polymer and ionic liquid: have not desorbed
